Experimental data as given in patent US12479840B2, “HMG-CoA reductase degradation inducing compound” (Uppthera, priority 2020, dated 2025).

What follows are compounds tested against T1, HMG-CoA reductase (Homo sapiens, UniProt P04035) (assay: HMG-CoA reductase (HMGCR) degradation in HepG2 cells by western blotting). Settings: treated for 18 hours, ratio of HMG-CoA reductase to GAPDH, read-out: DC50.
T1 construct: endogenous in cells; host or cells: HepG2 (Korea Cell Line Bank)
T1 sequence (P04035 1-888): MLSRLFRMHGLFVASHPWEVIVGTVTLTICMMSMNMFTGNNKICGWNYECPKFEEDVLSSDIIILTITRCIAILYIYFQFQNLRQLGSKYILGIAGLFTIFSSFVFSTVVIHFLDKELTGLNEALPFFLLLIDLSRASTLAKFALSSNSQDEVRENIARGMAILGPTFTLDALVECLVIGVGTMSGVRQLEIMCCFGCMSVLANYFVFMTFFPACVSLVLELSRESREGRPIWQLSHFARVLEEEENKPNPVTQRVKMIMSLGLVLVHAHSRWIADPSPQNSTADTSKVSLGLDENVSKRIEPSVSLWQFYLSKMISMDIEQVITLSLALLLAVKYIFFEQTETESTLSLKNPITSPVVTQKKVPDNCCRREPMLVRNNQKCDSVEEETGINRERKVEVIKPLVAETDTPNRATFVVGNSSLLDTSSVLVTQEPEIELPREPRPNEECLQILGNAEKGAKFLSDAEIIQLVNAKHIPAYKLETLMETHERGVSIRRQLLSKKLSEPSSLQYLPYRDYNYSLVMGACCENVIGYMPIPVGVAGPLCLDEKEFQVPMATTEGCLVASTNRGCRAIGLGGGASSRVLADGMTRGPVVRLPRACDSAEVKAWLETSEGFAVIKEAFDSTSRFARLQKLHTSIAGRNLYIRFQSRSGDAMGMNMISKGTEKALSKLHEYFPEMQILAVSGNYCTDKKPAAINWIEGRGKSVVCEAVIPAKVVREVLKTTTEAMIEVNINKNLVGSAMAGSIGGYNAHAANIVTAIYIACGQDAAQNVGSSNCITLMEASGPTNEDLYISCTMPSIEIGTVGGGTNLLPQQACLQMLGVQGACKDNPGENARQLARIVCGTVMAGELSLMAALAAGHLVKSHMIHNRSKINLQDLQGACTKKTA
Format: cell-based
In short: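 HepG2 cells (passage P105–P110) treated 18 hours with compounds in 10-point three-fold dilutions from 3 μM. RIPA lysates (15 μg protein, BCA-quantified) run on SDS-PAGE and immunoblotted for HMGCR (1:500) with GAPDH (1:20000) as loading control, primary antibodies 16 hours at 4° C.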

`C[C@H]1C=C2C=C[C@H](C)[C@H](CC[C@@H]3C[C@@H](O[Si](C)(C)C(C)(C)C)CC(=O)O3)[C@H]2[C@@H](OC(=O)NCCCCOCCCCNc2cccc3c2C(=O)N(C2CCC(=O)NC2=O)C3=O)C1` (stereo partly drawn) [Compound 88, (1S,3R,7S,8S,8aR)-8-(2-((2R,4R)-4-((tert-butyldimethylsilyl)oxy)-6-oxotetrahydro-2H-pyran-2-yl)ethyl)-3,7-dimethyl-1,2,3,7,8,8a-hexahydronaphthalen-1-yl (4-(4-((2-(2,6-dioxopiperidin-3-yl)-1,3-dioxoisoindolin-4-yl)amino)butoxy)butyl)carbamate] and `C[C@H]1C=C2C=C[C@H](C)[C@H](CC[C@@H]3C[C@@H](O[Si](C)(C)C(C)(C)C)CC(=O)O3)[C@H]2[C@@H](OC(=O)NCCCOCCCOCCCNc2cccc3c2C(=O)N(C2CCC(=O)NC2=O)C3=O)C1` (stereo partly drawn) [Compound 94, (1S,3R,7S,8S,8aR)-8-(2-((2R,4R)-4-((tert-butyldimethylsilyl)oxy)-6-oxotetrahydro-2H-pyran-2-yl)ethyl)-3,7-dimethyl-1,2,3,7,8,8a-hexahydronaphthalen-1-yl (3-(3-(3-((2-(2,6-dioxopiperidin-3-yl)-1,3-dioxoisoindolin-4-yl)amino)propoxy)propoxy)propyl)carbamate] cannot be ordered by DC50: under 50 nM for the first, under 50 nM for the second.

Compared with `C[C@H]1C=C2C=C[C@H](C)[C@H](CC[C@@H]3C[C@@H](O)CC(=O)O3)[C@H]2[C@@H](OC(=O)NCCCCOCCCCNc2cccc3c2C(=O)N(C2CCC(=O)NC2=O)C3=O)C1` (stereo partly drawn) [Compound 89, (1S,3R,7S,8S,8aR)-8-(2-((2R,4R)-4-hydroxy-6-oxotetrahydro-2H-pyran-2-yl)ethyl)-3,7-dimethyl-1,2,3,7,8,8a-hexahydronaphthalen-1-yl (4-(4-((2-(2,6-dioxopiperidin-3-yl)-1,3-dioxoisoindolin-4-yl)amino)butoxy)butyl)carbamate], `C[C@H]1C=C2C=C[C@H](C)[C@H](CC[C@@H]3C[C@@H](O)CC(=O)O3)[C@H]2[C@@H](OC(=O)NCCCOCCCOCCCNc2cccc3c2C(=O)N(C2CCC(=O)NC2=O)C3=O)C1` (stereo partly drawn) [Compound 95, (1S,3R,7S,8S,8aR)-8-(2-((2R,4R)-4-hydroxy-6-oxotetrahydro-2H-pyran-2-yl)ethyl)-3,7-dimethyl-1,2,3,7,8,8a-hexahydronaphthalen-1-yl (3-(3-(3-((2-(2,6-dioxopiperidin-3-yl)-1,3-dioxoisoindolin-4-yl)amino)propoxy)propoxy)propyl)carbamate] is higher in DC50: under 50 nM for the first, 50 to 500 nM for the second.

`C[C@H]1C=C2C=C[C@H](C)[C@H](CC[C@@H]3C[C@@H](O[Si](C)(C)C(C)(C)C)CC(=O)O3)[C@H]2[C@@H](OC(=O)NCCOCCCOCCNc2cccc3c2C(=O)N(C2CCC(=O)NC2=O)C3=O)C1` (stereo partly drawn) [Compound 90, (1S,3R,7S,8S,8aR)-8-(2-((2R,4R)-4-((tert-butyldimethylsilyl)oxy)-6-oxotetrahydro-2H-pyran-2-yl)ethyl)-3,7-dimethyl-1,2,3,7,8,8a-hexahydronaphthalen-1-yl (2-(3-(2-((2-(2,6-dioxopiperidin-3-yl)-1,3-dioxoisoindolin-4-yl)amino)ethoxy)propoxy)ethyl)carbamate] and `C[C@H]1C=C2C=C[C@H](C)[C@H](CC[C@@H]3C[C@@H](O[Si](C)(C)C(C)(C)C)CC(=O)O3)[C@H]2[C@@H](OC(=O)NCCOCCOCCCNc2cccc3c2C(=O)N(C2CCC(=O)NC2=O)C3=O)C1` (stereo partly drawn) [Compound 92, (1S,3R,7S,8S,8aR)-8-(2-((2R,4R)-4-((tert-butyldimethylsilyl)oxy)-6-oxotetrahydro-2H-pyran-2-yl)ethyl)-3,7-dimethyl-1,2,3,7,8,8a-hexahydronaphthalen-1-yl (2-(2-(3-((2-(2,6-dioxopiperidin-3-yl)-1,3-dioxoisoindolin-4-yl)amino)propoxy)ethoxy)ethyl)carbamate] cannot be ordered by DC50: under 50 nM for the first, under 50 nM for the second.

`C[C@H]1C=C2C=C[C@H](C)[C@H](CC[C@@H]3C[C@@H](O)CC(=O)O3)[C@H]2[C@@H](OC(=O)NCCOCCCOCCNc2cccc3c2C(=O)N(C2CCC(=O)NC2=O)C3=O)C1` (stereo partly drawn) [Compound 91, (1S,3R,7S,8S,8aR)-8-(2-((2R,4R)-4-hydroxy-6-oxotetrahydro-2H-pyran-2-yl)ethyl)-3,7-dimethyl-1,2,3,7,8,8a-hexahydronaphthalen-1-yl (2-(3-(2-((2-(2,6-dioxopiperidin-3-yl)-1,3-dioxoisoindolin-4-yl)amino)ethoxy)propoxy)ethyl)carbamate] and `C[C@H]1C=C2C=C[C@H](C)[C@H](CC[C@@H]3C[C@@H](O)CC(=O)O3)[C@H]2[C@@H](OC(=O)NCCOCCOCCCNc2cccc3c2C(=O)N(C2CCC(=O)NC2=O)C3=O)C1` (stereo partly drawn) [Compound 93, (1S,3R,7S,8S,8aR)-8-(2-((2R,4R)-4-hydroxy-6-oxotetrahydro-2H-pyran-2-yl)ethyl)-3,7-dimethyl-1,2,3,7,8,8a-hexahydronaphthalen-1-yl (2-(2-(3-((2-(2,6-dioxopiperidin-3-yl)-1,3-dioxoisoindolin-4-yl)amino)propoxy)ethoxy)ethyl)carbamate] cannot be ordered by DC50: under 50 nM for the first, under 50 nM for the second.

`C[C@H]1C=C2C=C[C@H](C)[C@H](CC[C@@H]3C[C@@H](O[Si](C)(C)C(C)(C)C)CC(=O)O3)[C@H]2[C@@H](OC(=O)NCCCCCCCCNC(=O)COc2cccc3c2C(=O)N(C2CCC(=O)NC2=O)C3=O)C1` (stereo partly drawn) [Compound 96, (1S,3R,7S,8S,8aR)-8-(2-((2R,4R)-4-((tert-butyldimethylsilyl)oxy)-6-oxotetrahydro-2H-pyran-2-yl)ethyl)-3,7-dimethyl-1,2,3,7,8,8a-hexahydronaphthalen-1-yl (8-(2-((2-(2,6-dioxopiperidin-3-yl)-1,3-dioxoisoindolin-4-yl)oxy)acetamido)octyl)carbamate] and `C[C@H]1C=C2C=C[C@H](C)[C@H](CC[C@@H]3C[C@@H](O)CC(=O)O3)[C@H]2[C@@H](OC(=O)NCCCCCCCCNC(=O)COc2cccc3c2C(=O)N(C2CCC(=O)NC2=O)C3=O)C1` (stereo partly drawn) [Compound 97, (1S,3R,7S,8S,8aR)-8-(2-((2R,4R)-4-hydroxy-6-oxotetrahydro-2H-pyran-2-yl)ethyl)-3,7-dimethyl-1,2,3,7,8,8a-hexahydronaphthalen-1-yl (8-(2-((2-(2,6-dioxopiperidin-3-yl)-1,3-dioxoisoindolin-4-yl)oxy)acetamido)octyl)carbamate] fall in the same range of DC50: 50 to 500 nM for the first, 50 to 500 nM for the second.

In the case of `C[C@H]1C=C2C=C[C@H](C)[C@H](CC[C@@H]3C[C@@H](O[Si](C)(C)C(C)(C)C)CC(=O)O3)[C@H]2[C@@H](OC(=O)NCCOCCOCCOCC(=O)Nc2cccc3c2C(=O)N(C2CCC(=O)NC2=O)C3=O)C1` (stereo partly drawn) [Compound 98, (1S,3R,7S,8S,8aR)-8-(2-((2R,4R)-4-((tert-butyldimethylsilyl)oxy)-6-oxotetrahydro-2H-pyran-2-yl)ethyl)-3,7-dimethyl-1,2,3,7,8,8a-hexahydronaphthalen-1-yl (2-(2-(2-(2-((2-(2,6-dioxopiperidin-3-yl)-1,3-dioxoisoindolin-4-yl)amino)-2-oxoethoxy)ethoxy)ethoxy)ethyl)carbamate], the DC50 is reported as under 50 nM.
